The subject of one test is Muc5AC. In words: Western blot of Muc5AC in IL-13-treated SAEC monolayer. It is filed as cell-based, human. Particulars: IL-13 48 h, immunoblotting. Here is the method:
(§1) FIGS. 6A-6B. AR inhibition prevents IL-13-induced expression of Mucin and transcription factor SPDEF in airway epithelial cell monolayer. (A) The airway epithelial cell monolayer at ALI was serum starved without or with fidarestat and incubated with IL-13 for 18 h. Total RNA was isolated and subsequently RT-PCR was performed to assess the expression of Muc5AC and SPDEF. The bar diagrams show densitometric analysis of the corresponding blots (n=4). *p<0.001 vs Control; **p<0.001 vs IL-13; (B) The monolayer of ciliated airway cells at ALI was treated with AR inhibitor for 24 h and subsequently incubated with IL-13 for 24 or 48 h. At the end of incubation, cell lysate was prepared and subjected to western blotting using antibodies against Muc5AC, Muc5B, and SPDEF. The membranes were stripped and re-probed with antibodies against GAPDH to show the equal loading of protein. A representative blot is shown (n=4). *p<0.0001 vs Control; **p<0.001 vs IL-13. […] Protein levels were determined using Bradford reagent (Biorad, Hercules, Calif.). […] The blots were then washed, exposed to HRP-conjugated secondary antibodies (1:5,000 dilution) for 1 h, and the antigen-antibody complex was detected by enhanced chemiluminescence (Amersham Pharmacia Biotech, Piscataway, N.J., USA). […]
(In western blotting, separated proteins are transferred to a membrane and probed.)

Another test relates to Muc5B. The test is described as follows: Western blot of Muc5B in IL-13-treated SAEC monolayer. It is filed as cell-based, human. To be noted: IL-13 48 h, immunoblotting. Here is the method:
as §1

Molecules are shown by their SMILES.

`NC(=O)[C@@H]1C[C@]2(NC(=O)NC2=O)c2cc(F)ccc2O1` [fidarestat, (2S,4S)-2-aminoformyl-6-fluoro-spiro[chroman-4,4′-imidazolidine]-2′,5′-dione]: the “prevention of IL-13-induced increase in Muc5AC protein” value in the test on Muc5AC was about 75%. Moreover, the “prevention of IL-13-induced increase in Muc5B protein” value with Muc5B is recorded as about 50%.
